What was measured:
[1] = test system: clinically isolated MDR, XDR, and TDR M. tuberculosis strains; experiment: microbe, parasite or virus in culture; type: cell-based; settings: Mycobacterium tuberculosis
M. abscessus = experiment: microbe, parasite or virus in culture; type: cell-based, Mycobacterium abscessus; settings: Mycobacteroides abscessus
M. avium = experiment: microbe, parasite or virus in culture; type: cell-based; settings: Mycobacterium avium
M. bolletii = experiment: microbe, parasite or virus in culture; type: cell-based, Mycobacterium bolletii; settings: Mycobacteroides abscessus
M. conceptionense = experiment: microbe, parasite or virus in culture; type: cell-based, Mycobacterium conceptionense; settings: Mycolicibacterium senegalense
M. fortuitum = experiment: microbe, parasite or virus in culture; type: cell-based, Mycobacterium fortuitum; settings: Mycolicibacterium fortuitum
M. gilvum = experiment: microbe, parasite or virus in culture; type: cell-based, Mycobacterium gilvum; settings: Mycolicibacterium gilvum
M. marinum = experiment: microbe, parasite or virus in culture; type: cell-based; settings: Mycobacterium marinum
M. peregrinum = experiment: microbe, parasite or virus in culture; type: cell-based, Mycobacterium peregrinum; settings: Mycolicibacterium peregrinum
M. phlei = experiment: microbe, parasite or virus in culture; type: cell-based, Mycobacterium phlei; settings: Mycolicibacterium phlei
M. phocaicum = experiment: microbe, parasite or virus in culture; type: cell-based, Mycobacterium phocaicum; settings: Mycolicibacterium phocaicum
M. smegmatis = experiment: microbe, parasite or virus in culture; type: cell-based, Mycobacterium smegmatis; settings: Mycolicibacterium smegmatis
M. szulgai = experiment: microbe, parasite or virus in culture; type: cell-based; settings: Mycobacterium szulgai
Acinetobacter baumannii = experiment: Broth dilution MIC (CLSI); type: cell-based; settings: read-out: MIC
Text: (§1) Bacteria (Acinetobacter baumannii NCCP 14782, Citrobacter freundii NCCP 14766, Enterobacter aerogenes NCCP 14761, Escherichia coli NCCP 14762, Escherichia coli O157 NCCP 14541, Klebsiella pneumoniae NCCP 14764, Proteus mirabilis NCCP 14763, Proteus vulgaris NCCP 14765, Pseudomonas aeruginosa NCCP 14781, Salmonella Enteritidis NCCP 14771, Salmonella Paratyphi A NCCP 14759, Salmonella Typhimurium NCCP 16207, Serratia marcescens NCCP 14770, Shigella boydii NCCP 14745, Shigella dysenteriae NCCP 14746, Shigella flexneri NCCP 14744, Shigella sonnei NCCP 14773, Bacillus subtilis NCCP 11101, Corynebacterium diphtheriae NCCP 10353, Staphylococcus aureus MSSA NCCP 14780, Staphylococcus aureus MRSA NCCP 14769, Staphylococcus epidermidis NCCP 14768, Streptococcus pneumoniae NCCP 14774) and fungi (Aspergillus fumigatus NCCP 22454, Candida albicans NCCP 32557, Cryptococcus neoformans NCCP 32559, Microsporum canis NCCP 22454, Rhizopus oryzae NCCP 22458, Saccharomyces cerevisiae NCCP 32558, Trichophyton rubrum NCCP 22456) strains were obtained from the National Culture Collection for Pathogens (NCCP) (Chungbuk, Korea). The MIC of each agent was determined following the Clinical and Laboratory Standards Institute (CLSI).[40]

Aspergillus fumigatus = experiment: Broth dilution MIC (CLSI); type: cell-based; settings: read-out: MIC
Text: as §1

Bacillus subtilis = experiment: Broth dilution MIC (CLSI); type: cell-based; settings: read-out: MIC
Text: as §1

Candida albicans = experiment: Broth dilution MIC (CLSI); type: cell-based; settings: read-out: MIC
Text: as §1

Citrobacter freundii = experiment: Broth dilution MIC (CLSI); type: cell-based; settings: read-out: MIC
Text: as §1

[2] = test system: Corynebacterium diphtheriae; experiment: Broth dilution MIC (CLSI); type: cell-based; settings: read-out: MIC
Text: as §1

Cryptococcus neoformans = experiment: Broth dilution MIC (CLSI); type: cell-based; settings: read-out: MIC
Text: as §1

Enterobacter aerogenes = experiment: Broth dilution MIC (CLSI); type: cell-based; settings: Klebsiella aerogenes; Enterobacter aerogenes; read-out: MIC
Text: as §1

Escherichia coli O157 = experiment: Broth dilution MIC (CLSI); type: cell-based; settings: read-out: MIC
Text: as §1

Escherichia coli = experiment: Broth dilution MIC (CLSI); type: cell-based; settings: read-out: MIC
Text: as §1

Klebsiella pneumoniae = experiment: Broth dilution MIC (CLSI); type: cell-based; settings: read-out: MIC
Text: as §1

Microsporum canis = experiment: Broth dilution MIC (CLSI); type: cell-based; settings: read-out: MIC
Text: as §1

Proteus mirabilis = experiment: Broth dilution MIC (CLSI); type: cell-based; settings: read-out: MIC
Text: as §1

Proteus vulgaris = experiment: Broth dilution MIC (CLSI); type: cell-based; settings: read-out: MIC
Text: as §1

Pseudomonas aeruginosa = experiment: Broth dilution MIC (CLSI); type: cell-based; settings: read-out: MIC
Text: as §1

Rhizopus oryzae = experiment: Broth dilution MIC (CLSI); type: cell-based; settings: Rhizopus arrhizus; Rhizopus oryzae; read-out: MIC
Text: as §1

Saccharomyces cerevisiae = experiment: Broth dilution MIC (CLSI); type: cell-based; settings: read-out: MIC
Text: as §1

Salmonella Enteritidis = experiment: Broth dilution MIC (CLSI); type: cell-based; settings: Salmonella enterica; Salmonella Enteritidis; read-out: MIC
Text: as §1

Salmonella Paratyphi A = experiment: Broth dilution MIC (CLSI); type: cell-based; settings: Salmonella enterica; Salmonella Paratyphi A; read-out: MIC
Text: as §1

Salmonella Typhimurium = experiment: Broth dilution MIC (CLSI); type: cell-based; settings: Salmonella enterica; Salmonella Typhimurium; read-out: MIC
Text: as §1

Serratia marcescens = experiment: Broth dilution MIC (CLSI); type: cell-based; settings: read-out: MIC
Text: as §1

Shigella boydii = experiment: Broth dilution MIC (CLSI); type: cell-based; settings: read-out: MIC
Text: as §1

Shigella dysenteriae = experiment: Broth dilution MIC (CLSI); type: cell-based; settings: read-out: MIC
Text: as §1

Shigella flexneri = experiment: Broth dilution MIC (CLSI); type: cell-based; settings: read-out: MIC
Text: as §1

Shigella sonnei = experiment: Broth dilution MIC (CLSI); type: cell-based; settings: read-out: MIC
Text: as §1

[3] = test system: Staphylococcus aureus, MRSA; experiment: Broth dilution MIC (CLSI); type: cell-based; settings: read-out: MIC
Text: as §1

[4] = test system: Staphylococcus aureus, MSSA; experiment: Broth dilution MIC (CLSI); type: cell-based; settings: read-out: MIC
Text: as §1

[5] = test system: Staphylococcus epidermidis; experiment: Broth dilution MIC (CLSI); type: cell-based; settings: read-out: MIC
Text: as §1

Streptococcus pneumoniae = experiment: Broth dilution MIC (CLSI); type: cell-based; settings: read-out: MIC
Text: as §1

Trichophyton rubrum = experiment: Broth dilution MIC (CLSI); type: cell-based; settings: read-out: MIC
Text: as §1

Measured: MIC

[H]/N=C(/N)N[C@H]1[C@H](O)[C@@H](O)[C@H](O[C@@H]2O[C@@H](C)[C@](O)(C=O)[C@H]2O[C@@H]2O[C@@H](CO)[C@H](O)[C@@H](O)[C@@H]2NC)[C@@H](N/C(N)=N\[H])[C@@H]1O [STR, streptomycin]
1.6 µg/mL: Citrobacter freundii | [5]
12.5 µg/mL: Streptococcus pneumoniae
25 µg/mL: M. abscessus | M. bolletii | Escherichia coli | Proteus vulgaris | Pseudomonas aeruginosa | Salmonella Typhimurium | Shigella boydii | Shigella dysenteriae | Shigella flexneri
0.2 µg/mL: M. gilvum | M. phlei | M. smegmatis | M. szulgai
3.1 µg/mL: M. avium | M. conceptionense | M. peregrinum | [2] | Enterobacter aerogenes | Klebsiella pneumoniae | Salmonella Enteritidis | Shigella sonnei | [3]
0.8 µg/mL: Bacillus subtilis
6.3 µg/mL: M. fortuitum | M. phocaicum | Acinetobacter baumannii | Escherichia coli O157 | Proteus mirabilis | Salmonella Paratyphi A | [4]
< 0.1 µg/mL: M. marinum
50 µg/mL: [1]; TDR-1 | [1]; TDR-3 | Serratia marcescens
> 100 µg/mL: [1]; TDR-2 | Aspergillus fumigatus | Candida albicans | Cryptococcus neoformans | Microsporum canis | Rhizopus oryzae | Saccharomyces cerevisiae | Trichophyton rubrum

Source: paper PMC9154192 (PLoS Biology, 2022)
